MIC data for 27 molecules are collected here from patent US20140038989A1, “TETRAHYDROPYRAZOLO [1,5-A] PYRIMIDINE AS ANTI-TUBERCULOSIS COMPOUNDS” (Glaxo Group Limited, priority 2011, published 2014).

The structures appear in SMILES notation. In brackets after ≈: the same amount, converted by molar mass. Where only a bound is given, the exact number is not on record here.

This experiment relates to Mycobacterium tuberculosis H37Rv. Kind of experiment: Mycobacterium tuberculosis H37Rv Inhibition Assay (Whole Cell Assay). The format is cell-based. The settings on record: ATCC 25618 / H37Rv, H37Rv strain (ATCC25618), Middlebrook 7H9, six days at 37° C., resazurin fluorescence after 48 hours. (The colour change of resazurin is a common sign of viable cells or microbes.)
On to `O=C(NCc1ccco1)c1cnn2c1NC(c1ccc(Br)cc1)CC2C(F)(F)F` (stereo not drawn) [57′, 5-(4-bromophenyl)-N-(furan-2-ylmethyl)-7-(trifluoromethyl)-4,5,6,7-tetrahydropyrazolo[1,5-a]pyrimidine-3-carboxamide, reference compound], for which the MIC is > 2 µM.

`Cc1ccc([C@H]2C[C@@H](C(F)(F)F)n3ncc(C(=O)NCc4ccccc4C(F)(F)F)c3N2)cc1` (relative stereo) [Example 43, Cis-5-(p-tolyl)-7-(trifluoromethyl)-N-(2-(trifluoromethyl)benzyl)-4,5,6,7-tetrahydropyrazolo[1,5-a]pyrimidine-3-carboxamide]: the MIC is > 2 µM.

On to `Cc1ccc([C@H]2C[C@@H](C(F)(F)F)n3ncc(C(=O)NCc4ccc(N(C)C)cc4)c3N2)cc1` (relative stereo) [Example 49, Cis-N-(4-(dimethylamino)benzyl)-5-(p-tolyl)-7-(trifluoromethyl)-4,5,6,7-tetrahydropyrazolo[1,5-a]pyrimidine-3-carboxamide], for which the MIC is > 2 µM.

Turning to `CCc1ccc([C@H]2C[C@@H](C(F)(F)F)n3ncc(C(=O)NCc4ccc(C)cn4)c3N2)cc1` (relative stereo) [Example 20, Cis-5-(4-ethylphenyl)-N-((5-methylpyridin-2-yl)methyl)-7-(trifluoromethyl)-4,5,6,7-tetrahydropyrazolo[1,5-a]pyrimidine-3-carboxamide], the minimal inhibitory concentration (MIC) was 1 to 2 µM (≈ 0.443 to 0.887 µg/mL).

Take `CCc1ccc([C@H]2C[C@@H](C(C)C)n3ncc(C(=O)NCc4ccc(OC)cc4)c3N2)cc1` (relative stereo) [Example 71, Cis-5-(4-ethylphenyl)-7-isopropyl-N-(4-methoxybenzyl)-4,5,6,7-tetrahydropyrazolo[1,5-a]pyrimidine-3-carboxamide]: the MIC was ≤ 1 µM.

As to `CCc1ccc([C@H]2C[C@@H](C(F)(F)F)n3ncc(C(=O)NCc4ccc(Cl)cc4)c3N2)cc1` (relative stereo) [Example 67, Cis-N-(4-chlorobenzyl)-5-(4-ethylphenyl)-7-(trifluoromethyl)-4,5,6,7-tetrahydropyrazolo[1,5-a]pyrimidine-3-carboxamide], the MIC was ≤ 1 µM.

With `CCc1ccc([C@H]2C[C@@H](C(F)(F)F)n3ncc(C(=O)NCc4ccc(OC)c(OC)c4)c3N2)cc1` (relative stereo) [Example 47, Cis-N-(3,4-dimethoxybenzyl)-5-(4-ethylphenyl)-7-(trifluoromethyl)-4,5,6,7-tetrahydropyrazolo[1,5-a]pyrimidine-3-carboxamide], the MIC is > 2 µM.

On to `CCc1ccc([C@H]2C[C@@H](C(F)(F)F)n3ncc(C(=O)NCc4cnc(OC)c(F)c4)c3N2)cc1` [Example 104, (5R,7S)-5-(4-ethylphenyl)-N-((5-fluoro-6-methoxypyridin-3-yl)methyl)-7-(trifluoromethyl)-4,5,6,7-tetrahydropyrazolo[1,5-a]pyrimidine-3-carboxamide], for which the MIC is ≤ 1 µM.

In the case of `CCc1ccc([C@H]2C[C@@H](C(F)(F)F)n3ncc(C(=O)NCc4ccc(OC)nc4)c3N2)cc1` (relative stereo) [Example 74, Cis5-(4-ethylphenyl)-N-((6-methoxypyridin-3-yl)methyl)-7-(trifluoromethyl)-4,5,6,7-tetrahydropyrazolo[1,5-a]pyrimidine-3-carboxamide], the MIC is 1 to 2 µM (≈ 0.459 to 0.919 µg/mL).

Turning to `CCc1ccc([C@H]2C[C@@H](C)n3ncc(C(=O)NCc4ccc(OC)cc4)c3N2)cc1` (relative stereo) [Example 23, Cis-5-(4-ethylphenyl)-7-methyl-N-{[4-(methyloxy)phenyl]methyl}-4,5,6,7-tetrahydropyrazolo[1,5-a]pyrimidine-3-carboxamide], the MIC was ≤ 1 µM.

Turning to `CCc1ccc([C@H]2C[C@@H](C(F)F)n3ncc(C(=O)NCc4ccc(OC)cc4)c3N2)cc1` (relative stereo) [Example 32, Cis-7-(difluoromethyl)-5-(4-ethylphenyl)-N-(4-methoxybenzyl)-4,5,6,7-tetrahydropyrazolo[1,5-a]pyrimidine-3-carboxamide], the MIC is ≤ 1 µM.

For `Cc1ccc([C@H]2C[C@@H](C(F)(F)F)n3ncc(C(=O)NCc4cccc(C)c4)c3N2)cc1` (relative stereo) [Example 24, Cis-N-(3-methylbenzyl)-5-(p-tolyl)-7-(trifluoromethyl)-4,5,6,7-tetrahydropyrazolo[1,5-a]pyrimidine-3-carboxamide], the MIC is ≤ 1 µM.

In the case of `CCc1ccc([C@H]2C[C@@H](C(F)(F)F)n3ncc(C(=O)NCc4ccc(OC)cc4OC)c3N2)cc1` (relative stereo) [Example 46, Cis-N-(2,4-dimethoxybenzyl)-5-(4-ethylphenyl)-7-(trifluoromethyl)-4,5,6,7-tetrahydropyrazolo[1,5-a]pyrimidine-3-carboxamide], the MIC was > 2 µM.

Take `CCc1ccc([C@H]2C[C@@H](C(F)(F)F)n3ncc(C(=O)NCc4ncc(F)cc4F)c3N2)cc1` [Example 101, (5R,7S)—N-((3,5-difluoropyridin-2-yl)methyl)-5-(4-ethylphenyl)-7-(trifluoromethyl)-4,5,6,7-tetrahydropyrazolo[1,5-a]pyrimidine-3-carboxamide]: the MIC is ≤ 1 µM.

`CCc1ccc([C@H]2C[C@@H](C(F)(F)F)n3ncc(C(=O)NCc4ccncc4)c3N2)cc1` (relative stereo) [Example 48, Cis-5-(4-ethylphenyl)-N-(pyridin-4-ylmethyl)-7-(trifluoromethyl)-4,5,6,7-tetrahydropyrazolo[1,5-a]pyrimidine-3-carboxamide]: the MIC was > 2 µM.

`Cc1ccc([C@H]2C[C@@H](C(F)(F)F)n3ncc(C(=O)NCc4cc(F)cc(F)c4)c3N2)cc1` (relative stereo) [Example 30, Cis-N-(3,5-difluorobenzyl)-5-(p-tolyl)-7-(trifluoromethyl)-4,5,6,7-tetrahydropyrazolo[1,5-a]pyrimidine-3-carboxamide]: the MIC is ≤ 1 µM.

For the molecule `CCc1ccc([C@H]2C[C@@H](C(F)(F)F)n3ncc(C(=O)NCc4ccc(Cl)nc4)c3N2)cc1` [Example 103, (5R,7S)—N-((6-chloropyridin-3-yl)methyl)-5-(4-ethylphenyl)-7-(trifluoromethyl)-4,5,6,7-tetrahydropyrazolo[1,5-a]pyrimidine-3-carboxamide], the MIC was ≤ 1 µM.

`CCc1ccc([C@H]2C[C@@H](C(F)(F)F)n3ncc(C(=O)NCc4ccc(F)cc4)c3N2)cc1` (relative stereo) [Example 58, Cis-5-(4-ethylphenyl)-N-(4-fluorobenzyl)-7-(trifluoromethyl)-4,5,6,7-tetrahydropyrazolo[1,5-a]pyrimidine-3-carboxamide]: the MIC is ≤ 1 µM.

`CCc1ccc([C@H]2C[C@@H](C(F)(F)F)n3ncc(C(=O)NCc4ccc(Cl)cn4)c3N2)cc1` (relative stereo) [Example 75, Cis-N-((5-chloropyridin-2-yl)methyl)-5-(4-ethylphenyl)-7-(trifluoromethyl)-4,5,6,7-tetrahydropyrazolo[1,5-a]pyrimidine-3-carboxamide] returned an MIC of 1 to 2 µM (≈ 0.464 to 0.928 µg/mL).

With `CCc1ccc([C@H]2C[C@@H](C(F)(F)F)n3ncc(C(=O)NCc4ccc(F)cn4)c3N2)cc1` (relative stereo) [Example 69, Cis-5-(4-ethylphenyl)-N-((5-fluoropyridin-2-yl)methyl)-7-(trifluoromethyl)-4,5,6,7-tetrahydropyrazolo[1,5-a]pyrimidine-3-carboxamide], the MIC was ≤ 1 µM.

For the molecule `CCc1ccc([C@H]2C[C@@H](C(F)(F)F)n3ncc(C(=O)NCc4ccc(C)c(Cl)c4)c3N2)cc1` (relative stereo) [Example 9, Cis-N-(3-chloro-4-methylbenzyl)-5-(4-ethylphenyl)-7-(trifluoromethyl)-4,5,6,7-tetrahydropyrazolo[1,5-a]pyrimidine-3-carboxamide], the MIC is ≤ 1 µM.

Consider `CCc1ccc([C@H]2C[C@@H](C(F)(F)F)n3ncc(C(=O)NCc4ccc(N(C)C)cc4)c3N2)cc1` (relative stereo) [Example 11, Cis-N-(4-(dimethylamino)benzyl)-5-(4-ethylphenyl)-7-(trifluoromethyl)-4,5,6,7-tetrahydropyrazolo[1,5-a]pyrimidine-3-carboxamide], for which the MIC fell in the range of 1 to 2 µM (≈ 0.472 to 0.943 µg/mL).

`Cc1ccc(CNC(=O)c2cnn3c2N[C@@H](c2ccc(C)cc2)C[C@H]3C(F)(F)F)cc1` (relative stereo) [Example 25, Cis-N-(4-methylbenzyl)-5-(p-tolyl)-7-(trifluoromethyl)-4,5,6,7-tetrahydropyrazolo[1,5-a]pyrimidine-3-carboxamide]: the MIC was ≤ 1 µM.

Regarding `CCc1ccc([C@H]2C[C@@H](C(C)(C)C)n3ncc(C(=O)NCc4ccc5c(c4)OCO5)c3N2)cc1` (relative stereo) [Example 36, Cis-N-(benzo[d][1,3]-dioxol-5-ylmethyl)-7-(tert-butyl)-5-(4-ethylphenyl)-4,5,6,7-tetrahydropyrazolo[1,5-a]pyrimidine-3-carboxamide], the MIC was 1 to 2 µM (≈ 0.461 to 0.921 µg/mL).

For `CCc1ccc([C@H]2C[C@@H](C(F)(F)F)n3ncc(C(=O)NCc4ccc(C)o4)c3N2)cc1` (relative stereo) [Example 4, Cis-5-(4-ethylphenyl)-N-((5-methylfuran-2-yl)methyl)-7-(trifluoromethyl)-4,5,6,7-tetrahydropyrazolo[1,5-a]pyrimidine-3-carboxamide], the MIC was ≤ 1 µM.

`Cc1ccc([C@H]2C[C@@H](C(F)(F)F)n3ncc(C(=O)NCC4CCCCC4)c3N2)cc1` (relative stereo) [Example 26, Cis-N-(cyclohexylmethyl)-5-(p-tolyl)-7-(trifluoromethyl)-4,5,6,7-tetrahydropyrazolo[1,5-a]pyrimidine-3-carboxamide] showed an MIC of 1 to 2 µM (≈ 0.42 to 0.841 µg/mL).

In the case of `CCc1ccc([C@H]2C[C@@H](C(F)(F)F)n3ncc(C(=O)NCc4ccccc4C(F)(F)F)c3N2)cc1` (relative stereo) [Example 44, Cis-5-(4-ethylphenyl)-7-(trifluoromethyl)-N-(2-(trifluoromethyl)benzyl)-4,5,6,7-tetrahydropyrazolo[1,5-a]pyrimidine-3-carboxamide], the MIC was > 2 µM.

By MIC is commonly meant the lowest concentration found to suppress growth.
